These results are taken from US8263656B2 (Hoffmann-La Roche Inc., priority 2008, dated 2012).

The target of one experiment is T1, human CRTH2 (Homo sapiens, UniProt Q9Y5Y4).
T1 construct: expressed in transfected cells
T1 sequence (Q9Y5Y4 1-395): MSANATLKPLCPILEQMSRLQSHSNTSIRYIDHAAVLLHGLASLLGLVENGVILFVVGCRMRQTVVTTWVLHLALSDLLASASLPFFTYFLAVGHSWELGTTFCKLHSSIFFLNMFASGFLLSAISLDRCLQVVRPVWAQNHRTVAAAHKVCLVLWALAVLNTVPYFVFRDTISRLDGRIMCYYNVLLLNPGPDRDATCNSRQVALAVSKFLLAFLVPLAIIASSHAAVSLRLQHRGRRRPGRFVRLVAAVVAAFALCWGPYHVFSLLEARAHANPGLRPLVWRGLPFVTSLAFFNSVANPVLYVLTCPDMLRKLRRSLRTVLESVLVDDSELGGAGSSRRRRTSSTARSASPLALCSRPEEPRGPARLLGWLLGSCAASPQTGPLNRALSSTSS
Nature of the experiment: Human CRTH2 Receptor Binding Assay (whole cell, [3H]ramatroban competition). Particulars: CHO-K1 cells expressing human CRTH2 and G-alpha16; 20 nM [3H]ramatroban; 1 hour, room temperature. An excerpt: A whole cell receptor binding assay using [^3H]ramatroban as the competing radioactive ligand was employed to evaluate the compound binding activity to human CRTH2. The radioactive ligand [^3H]ramatroban was synthesized according to Sugimoto et. al. (Eur. J. Pharmacol. 524, 30-37, 2005) to a specific activity of 42 Ci/mmol.
A cell line stably expressing human CRTH2 was established by transfecting CHO-K1 cells with two mammalian expression vectors that harbored human CRTH2 and G-alpha16 cDNAs, respectively, using FuGene® 6 transfection reagent (from Roche). Stable clones expressing CRTH2 were selected by staining each clone with BM16 (BD Pharmingen™ from BD Biosciences, a division of Becton, Dickinson and Company), which is a rat monoclonal antibody to human CRTH2. The cells were maintained as monolayer cultures in Ham's F-12 medium containing 10% fetal bovine serum, 100 units/mL penicillin, […] streptomycin, 2 mM glutamine, 0.5 mg/mL G418 (geneticin) for CRTH2, and 0.2 mg/mL hygromycin-B (for G-alpha 16). For whole cell receptor binding assay, the monolayer cells were rinsed once with PBS (phosphate buffered saline), dissociated using diammonium ethylenediaminetetraacetate (Versene™ EDTA from the Dow Chemical Company), and suspended in PBS containing 10 mM MgCl2 and 0.06% BSA (bovine serum albumin) at 1.5×10^6 cells/mL.
The binding reactions (0.2 mL) were performed in 96-well plates at room temperature in PBS containing 1.5×10^5 cells, 10 mM MgCl2, 0.06% BSA, 20 nM [^3H]ramatroban, and test compound at various concentrations. After 1 hour of binding reactions, the cells were harvested on GF™/B filter microplates (microtiter plates with embedded glass fiber from PerkinElmer, Inc.) and washed 5 times with PBS using a Filtermate™ Harvester (a cell harvester that harvests and washes cells from microplates from PerkinElmer, Inc.). The radioactivities bound to the cells were determined using a microplate scintillation counter (TopCount® NXT, from PerkinElmer, Inc.) after adding 50 μL of Microscint™ 20 scintillation fluid (from PerkinElmer, Inc.) to each well of the filter plates. The radioactivity from non-specific binding was determined by replacing compound with 10 μM of 15(R)-15-methyl PGD2 (from Cayman Chemical Company) in the reaction mixtures. The radioactivity bound to the cells in the absence of compound (total binding) was determined by replacing compound with 0.25% of DMSO (dimethyl sulfoxide) in the reaction mixture. Specific binding data were obtained by subtracting the radioactivity of non-specific binding from each binding data.
The IC50 value is defined as the concentration of the tested compound that is required for 50% inhibition of total specific binding. In order to calculate the IC50 value, the percent inhibition data were determined for 7 concentrations for each compound. The percent inhibition for a compound at each concentration was calculated according to the following formula, [1-(specific binding in the presence of compound)/(total specific binding)]×100. The IC50 value was then obtained by fitting the percent inhibition data to a sigmoidal dose-response (4 parameter logistic) model in the XLfit® software Excel add-in program [from ID Business Solutions Ltd., model 205, where F(x)=(A+(B−A)/(1+((C/x)^D)))].
Usually IC50 stands for the concentration at which inhibition is half-maximal. `CC(C)c1ccc2c(c1OCC(=O)O)CCCC2NS(=O)(=O)c1cc(C(F)(F)F)cc(C(F)(F)F)c1` (stereo not shown) [Example 1-2, [5-(3,5-Bis-trifluoromethyl-benzenesulfonyl-amino)-2-isopropyl-5,6,7,8-tetrahydro-naphthalen-1-yloxy]-acetic acid] had an IC50 of 195 nM.
With `CN([C@@H]1CCCc2c(OCC(=O)O)cc(Cl)cc21)S(=O)(=O)c1cc(C(F)(F)F)cc(C(F)(F)F)c1` [Example 2-5, {(R)-5-[(3,5-Bis-trifluoromethyl-benzenesulfonyl)-methyl-amino]-3-chloro-5,6,7,8-tetrahydro-naphthalen-1-yloxy}-acetic acid], the IC50 was 5.9 nM.
`CN(C1CCCc2c(OCC(=O)O)cc(Cl)cc21)S(=O)(=O)c1cc(Br)cc(C(F)(F)F)c1` (stereo not shown) [Example 2-13, {5-[(3-Bromo-5-trifluoromethyl-benzenesulfonyl)-methyl-amino]-3-chloro-5,6,7,8-tetrahydro-naphthalen-1-yloxy}-acetic acid] registered an IC50 of 6.2 nM.
On to `O=C(O)COc1cc(-c2ccccc2)cc2c1CCCC2NS(=O)(=O)c1cc(C(F)(F)F)cc(C(F)(F)F)c1` (stereo not shown) [Example 1-24, [5-(3,5-Bis-trifluoromethyl-benzenesulfonyl-amino)-3-phenyl-5,6,7,8-tetrahydro-naphthalen-1-yloxy]-acetic acid], for which the IC50 was determined as 3.7 nM.
Compound `O=C(O)COc1cc(Cl)cc2c1CCCC2NS(=O)(=O)c1cc(Br)cc(C(F)(F)F)c1` (stereo not shown) [Example 1-17, [5-(3-Bromo-5-trifluoromethyl-benzenesulfonyl-amino)-3-chloro-5,6,7,8-tetrahydro-naphthalen-1-yloxy]-acetic acid] yielded a 50% inhibitory concentration (IC50) of 3.6 nM.
On the same count and under the same terms, the value for `O=C(O)COc1cc(Cl)cc2c1CCC[C@H]2NS(=O)(=O)c1cc(Br)cc(C(F)(F)F)c1` [Example 1-42, [(R)-5-(3-Bromo-5-trifluoromethyl-benzenesulfonyl-amino)-3-chloro-5,6,7,8-tetrahydro-naphthalen-1-yloxy]-acetic acid] was 3.2 nM.
In turn, `O=C(O)COc1cc(Cl)cc2c1CCC[C@H]2NS(=O)(=O)c1cc(C(F)(F)F)cc(C(F)(F)F)c1` [Example 1-8] showed a 50% inhibitory concentration (IC50) of 3.5 nM.
Consider `O=C(O)COc1c(F)c(Cl)cc2c1CCC[C@H]2NS(=O)(=O)c1cc(Br)cc(C(F)(F)F)c1` [Example 1-39, [(R)-5-(3-Bromo-5-trifluoromethyl-benzenesulfonyl-amino)-3-chloro-2-fluoro-5,6,7,8-tetrahydro-naphthalen-1-yloxy]-acetic acid], for which the IC50 stood at 2.6 nM.
On to `O=C(O)COc1c(F)ccc2c1CCCC2NS(=O)(=O)c1cc(C(F)(F)F)cc(C(F)(F)F)c1` (stereo not shown) [Example 1-22, [5-(3,5-Bis-trifluoromethyl-benzenesulfonyl-amino)-2-fluoro-5,6,7,8-tetrahydro-naphthalen-1-yloxy]-acetic acid], for which the IC50 came out at 33.7 nM.
For the compound `CN(C1CCCc2c1cc(Cl)c(F)c2OCC(=O)O)S(=O)(=O)c1cc(Br)cc(C(F)(F)F)c1` (stereo not shown) [Example 2-12, {5-[(3-Bromo-5-trifluoromethyl-benzenesulfonyl)-methyl-amino]-3-chloro-2-fluoro-5,6,7,8-tetrahydro-naphthalen-1-yloxy}-acetic acid], the 50% inhibitory concentration (IC50) stood at 12.3 nM.
In turn, `CN(C1CCCc2c(OCC(=O)O)cc(Cl)cc21)S(=O)(=O)c1ccc(Cl)cc1Cl` (stereo not shown) [Example 2-6, {3-Chloro-5-[(2,4-dichloro-benzenesulfonyl)-methyl-amino]-5,6,7,8-tetrahydro-naphthalen-1-yloxy}-acetic acid] gave an IC50 of 92.9 nM.
Compound `CN(C1CCCc2c1ccc(F)c2OCC(=O)O)S(=O)(=O)c1cc(C(F)(F)F)cc(C(F)(F)F)c1` (stereo not shown) [Example 2-17] returned an IC50 of 199 nM.
The compound `O=C(O)COc1c(F)c(F)cc2c1CCCC2NS(=O)(=O)c1cc(Cl)ccc1Cl` (stereo not shown) [Example 1-32, [5-(2,5-Dichloro-benzenesulfonyl-amino)-2,3-difluoro-5,6,7,8-tetrahydro-naphthalen-1-yloxy]-acetic acid] registered a 50% inhibitory concentration (IC50) of 269 nM.
With `O=C(O)COc1c(F)c(Cl)cc2c1CCCC2NS(=O)(=O)c1cc(C(F)(F)F)cc(C(F)(F)F)c1` (stereo not shown) [Example 1-9, [5-(3,5-Bis-trifluoromethyl-benzenesulfonyl-amino)-3-chloro-2-fluoro-5,6,7,8-tetrahydro-naphthalen-1-yloxy]-acetic acid], the IC50 came out at 5.8 nM.
For the compound `COc1cc(OCC(=O)O)c2c(c1)[C@H](NS(=O)(=O)c1cc(C(F)(F)F)cc(C(F)(F)F)c1)CCC2` [Example 1-23, [(R)-5-(3,5-Bis-trifluoromethyl-benzenesulfonyl-amino)-3-methoxy-5,6,7,8-tetrahydro-naphthalen-1-yloxy]-acetic acid], the IC50 was determined as 3.6 nM.
On the same count and under the same terms, the value for `O=C(O)COc1cc(F)cc2c1CCCC2NS(=O)(=O)c1cc(F)cc(C(F)(F)F)c1` (stereo not shown) [Example 1-27, [3-Fluoro-5-(3-fluoro-5-trifluoromethyl-benzenesulfonyl-amino)-5,6,7,8-tetrahydro-naphthalen-1-yloxy]-acetic acid] was 40.1 nM; that for `O=C(O)COc1cc(F)cc2c1CCCC2NS(=O)(=O)c1cc(Br)cc(C(F)(F)F)c1` (stereo not shown) [Example 1-28, [5-(3-Bromo-5-trifluoromethyl-benzenesulfonyl-amino)-3-fluoro-5,6,7,8-tetrahydro-naphthalen-1-yloxy]-acetic acid] was 4.2 nM.
Consider `O=C(O)COc1cc(Cl)cc2c1CCC[C@H]2NS(=O)(=O)c1cc(F)cc(C(F)(F)F)c1` [Example 1-41, [(R)-3-Chloro-5-(3-fluoro-5-trifluoromethyl-benzenesulfonyl-amino)-5,6,7,8-tetrahydro-naphthalen-1-yloxy]-acetic acid], for which the IC50 was 3.4 nM.

The subject of a further experiment is DK-PGD2-induced IL-13 production in T helper type 2 (Th2) cells. Put plainly: DK-PGD2-Induced IL-13 Production Assay in Th2 Cells. Type of experiment: cell-based. Particulars: human Th2 cells, 500 nM DK-PGD2, 4 hrs at 37° C., ELISA; unit inferred; read-out: IC50 of inhibiting IL-13 production (values greater than 10). The protocol: Inhibition of 13,14-dihydro-15-keto Prostaglandin D2 (DK-PGD2)-induced IL-13 production in T helper type 2 (Th2) cells was applied to evaluate compound cellular potency.
Cultures of Th2 cells were established from blood of healthy human volunteers according to the following procedure. Peripheral blood mononuclear cells (PBMC) were first isolated from 50 mL of fresh blood by Ficoll-Hypaque density gradient centrifugation, followed by CD4^+ cell purification using a CD4^+ T Cell Isolation Kit II (from Miltenyi Biotec Inc.). The CD4^+ T cells were then differentiated to Th2 cells by culturing the cells in X-VIVO 15® medium (from Cambrex BioScience Walkersville Inc.) containing 10% human AB serum (serum of blood type AB from Invitrogen Corporation), 50 U/mL of recombinant human interleukin-2 (rhIL-2) (from PeproTech Inc.) and 100 ng/mL of recombinant human interleukin-4 (rhIL-4) (from PeproTech Inc.) for 7 days. The Th2 cells were isolated using a CD294 (CRTH2) MicroBead Kit (from Miltenyi Biotec Inc.) and amplified in X-VIVO 15® medium containing 10% human AB serum and 50 U/mL of rhIL-2 for 2 to 5 weeks. In general, 70% to 80% of the Th2 cells used in the assay are CRTH2-positive when analyzed by fluorescence-activated cell sorting using the BM16 antibody (as previously described) conjugated to phycoerythrin (PE).
The spontaneous production of IL-13 by Th2 cells was determined in the absence of DK-PGD2 stimulation and the value was subtracted from that in the presence of each compound for percent inhibition and IC50 calculations.
The percent inhibition of interleukin 13 (IL-13) production for a compound at various concentrations was calculated according to the following formula, [1-(IL-13 production in the presence of compound)/(IL-13 production in the presence of 0.15% DMSO)]×100. The IC50 value, defined as the concentration of a compound that is required for 50% inhibition of IL-13 production, was calculated by fitting the percent inhibition data for 7 concentrations to a sigmoidal dose-response (4 parameter logistic) model in the XLfit® software Excel add-in program [ID Business Solutions Ltd., model 205, where F(x)=(A+(B−A)/(1+((C/x)^D)))].
On the technique in general: An ELISA detects its analyte on a solid surface through an enzyme-linked reagent.
As to `CC(C)c1ccc2c(c1OCC(=O)O)CCCC2NS(=O)(=O)c1cc(C(F)(F)F)cc(C(F)(F)F)c1` (stereo not shown) [Example 1-2, [5-(3,5-Bis-trifluoromethyl-benzenesulfonyl-amino)-2-isopropyl-5,6,7,8-tetrahydro-naphthalen-1-yloxy]-acetic acid], the IC50 is more than 10000 nM.
